COc1cc(Cl)c(OC)cc1N
Settings | solubility (mole fraction)
in ethanol, 279.35 K | 0.00274
in ethanol, 282.65 K | 0.00327
in ethanol, 286.45 K | 0.00386
in ethanol, 289.55 K | 0.00447
in ethanol, 292.15 K | 0.00497
in ethanol, 295.55 K | 0.00579
in ethanol, 299.45 K | 0.00695
in ethanol, 303.05 K | 0.00821
in ethanol, 305.85 K | 0.00938
in ethanol, 310.25 K | 0.0115
in ethanol, 313.95 K | 0.0137
in ethanol, 317.65 K | 0.0164
in ethanol, 321.55 K | 0.0201
in ethanol, 325.05 K | 0.024
in ethanol, 328.65 K | 0.0289
in ethanol, 331.55 K | 0.0344
in ethanol, 335.25 K | 0.0416
in m-xylene, 277.35 K | 0.00495
in m-xylene, 281.85 K | 0.00615
in m-xylene, 286.05 K | 0.00739
in m-xylene, 289.95 K | 0.00877
in m-xylene, 292.85 K | 0.0103
in m-xylene, 296.25 K | 0.012
in m-xylene, 299.35 K | 0.0139
in m-xylene, 302.35 K | 0.016
in m-xylene, 305.55 K | 0.0186
in m-xylene, 309.25 K | 0.0219
in m-xylene, 312.75 K | 0.0262
in m-xylene, 316.95 K | 0.0318
in m-xylene, 321.25 K | 0.0386
in m-xylene, 325.05 K | 0.0466
in m-xylene, 328.65 K | 0.0561
in m-xylene, 332.35 K | 0.0669
in m-xylene, 335.65 K | 0.0791
in methanol, 278.05 K | 0.00282
in methanol, 282.45 K | 0.00342
in methanol, 285.85 K | 0.00399
in methanol, 289.45 K | 0.00465
in methanol, 292.75 K | 0.0054
in methanol, 296.65 K | 0.00634
in methanol, 299.85 K | 0.00734
in methanol, 303.35 K | 0.00852
in methanol, 306.55 K | 0.0099
in methanol, 309.95 K | 0.0115
in methanol, 313.45 K | 0.0134
in methanol, 316.45 K | 0.0156
in methanol, 319.35 K | 0.0181
in methanol, 322.45 K | 0.0212
in methanol, 325.45 K | 0.0247
in methanol, 328.85 K | 0.0289
in o-xylene, 278.25 K | 0.0058
in o-xylene, 281.85 K | 0.00699
in o-xylene, 285.55 K | 0.00831
in o-xylene, 289.15 K | 0.00989
in o-xylene, 292.75 K | 0.0117
in o-xylene, 296.05 K | 0.0136
in o-xylene, 299.45 K | 0.0158
in o-xylene, 303.25 K | 0.0184
in o-xylene, 307.05 K | 0.0214
in o-xylene, 310.35 K | 0.0252
in o-xylene, 313.65 K | 0.0298
in o-xylene, 317.55 K | 0.0358
in o-xylene, 321.85 K | 0.0443
in o-xylene, 326.25 K | 0.0549
in o-xylene, 330.95 K | 0.0677
in o-xylene, 335.05 K | 0.0816
in p-xylene, 288.55 K | 0.00855
in p-xylene, 291.65 K | 0.00985
in p-xylene, 294.95 K | 0.0115
in p-xylene, 298.45 K | 0.0134
in p-xylene, 302.25 K | 0.0158
in p-xylene, 306.05 K | 0.0186
in p-xylene, 309.65 K | 0.022
in p-xylene, 313.55 K | 0.026
in p-xylene, 317.65 K | 0.031
in p-xylene, 321.25 K | 0.0371
in p-xylene, 325.25 K | 0.0447
in p-xylene, 329.55 K | 0.0539
in p-xylene, 334.25 K | 0.0651
in toluene, 277.65 K | 0.0065
in toluene, 281.95 K | 0.00831
in toluene, 286.05 K | 0.0101
in toluene, 290.05 K | 0.0126
in toluene, 293.35 K | 0.0146
in toluene, 296.45 K | 0.0169
in toluene, 299.65 K | 0.0194
in toluene, 302.75 K | 0.0224
in toluene, 306.25 K | 0.0263
in toluene, 309.95 K | 0.0312
in toluene, 313.75 K | 0.0373
in toluene, 317.65 K | 0.0447
in toluene, 321.75 K | 0.0536
in toluene, 325.45 K | 0.0641
in toluene, 328.95 K | 0.0761
in toluene, 332.25 K | 0.0894
in toluene, 335.35 K | 0.104

From BigSolDB 2.1
